Results: patent EP1200445B1, “THIENOPYRANECARBOXAMIDE DERIVATIVES” (RECORDATI INDUSTRIA CHIMICA E FARMACEUTICA S.p.a., priority 1999, dated 2001)
Where two headings read alike, the source gives them in different places.

Tests used:
[1] = test system: diastolic blood pressure (DBP); details: dogs, i.v.; data from Leonardi et al., J Pharmacol Exp Ther 281, 1272-1283 (1997); cited from earlier work
[2] = target: T1, α1L adrenoceptor subtype (Oryctolagus cuniculus, UniProt O02824); assay: Functional affinity for α1L-adrenoceptors: noradrenaline-induced contractions of rabbit aorta pretreated with chloroethylclonidine; format: biochemical; details: rabbit aorta rings pretreated with chloroethylclonidine, NA-induced contractions, Schild plot or apparent Kb
T1 sequence (O02824 1-466): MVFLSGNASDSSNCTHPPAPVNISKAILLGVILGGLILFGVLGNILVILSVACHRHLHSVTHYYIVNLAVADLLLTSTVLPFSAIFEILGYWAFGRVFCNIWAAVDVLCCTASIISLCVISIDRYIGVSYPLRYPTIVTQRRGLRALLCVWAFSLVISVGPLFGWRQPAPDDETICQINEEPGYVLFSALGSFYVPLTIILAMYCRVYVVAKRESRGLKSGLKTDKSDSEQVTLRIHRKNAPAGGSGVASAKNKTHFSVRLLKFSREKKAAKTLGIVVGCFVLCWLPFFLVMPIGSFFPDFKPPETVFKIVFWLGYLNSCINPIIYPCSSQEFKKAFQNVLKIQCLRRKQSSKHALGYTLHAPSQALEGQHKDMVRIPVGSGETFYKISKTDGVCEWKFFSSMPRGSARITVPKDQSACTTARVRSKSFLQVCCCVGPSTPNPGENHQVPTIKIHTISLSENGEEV
Experimental: Adult male New Zealand rabbits were sacrificed by cervical dislocation. The aorta was removed, placed in Krebs-Henseleit buffer and dissected free of adhering tissue. […] After washout of NA and re-equilibration of the tissue (45 minutes), the drug to be tested was added and, after 30 minutes, a second NA-cumulative-concentration/response curve constructed. Each antagonist concentration was tested using 2-3 aortic rings from different rabbits.

[3] = test system: urethral contractions (UC) induced by noradrenaline (NA); details: dogs, i.v.; data from Leonardi et al., J Pharmacol Exp Ther 281, 1272-1283 (1997); cited from earlier work
[4] = test system: urethral contractions (UC) induced by noradrenaline (NA); assay: Effects on urethral contractions induced by noradrenaline injection in dogs after i.v. administration; format: in vivo, beagle dogs; details: for ED50: Canis lupus familiaris, iv, anaesthetised male beagle dogs, i.v., dose inhibiting by 50% the NA-induced increase in urethral pressure, read-out: UC ID50 NA; for Ratio (DBP/UC): ratio between the active doses DBP ED25 / UC ID50, dogs i.v.
Experimental: The experiments were performed according to the method of Imagawa et al. (J. Pharmacol. Methods 22, 103-111 (1989)), with substantial modifications, as follows: adult male beagle dogs, weighing 8-10 kg, were anaesthetised with pentobarbital sodium (30 mg/kg i.v. and 2 mg/kg/h i.v.), intubated and spontaneously ventilated with room air. In order to monitor systemic blood pressure (BP), a polyethylene (PE) catheter was introduced into the aortic arch through the left femoral artery. A collateral of the left femoral vein was cannulated for infusion of anaesthetic, and the right femoral vein was cannulated for administration of compounds. For intraarterial (i.a.) injection of noradrenaline (NA), a PE catheter was introduced into the lower portion of the abdominal aorta via the right external iliac artery. Through such procedure, NA was selectively distributed to the lower urinary tract. A paramedian vertical suprapubic incision extending from the base of the pelvis to the mid-abdominal region was made and the bladder and the prostate were exposed. The bladder was manually emptied with a syringe. Prostatic urethral pressure was monitored with a Mikro-tip cathe[…]) introduced into the bladder via the external urethral meatus, and withdrawn until the pressure transducer was positioned in the prostatic region of the urethra. A ligature was secured between the neck of the bladder and urethra to isolate the response of the latter and to avoid any interaction with the bladder. Another ligature was put around the Mikro-tip catheter at the external meatus, to secure the catheter itself. […] In order to compare the effects of the administered compound, dose/response curves (log dose transformation) were constructed by computing, at the peak effect, the percent decrease in diastolic blood pressure and percent inhibition of the increase in urethral pressure induced by NA.

[5] = test system: diastolic blood pressure (DBP); assay: Effects on blood pressure in dogs after i.v. administration; format: in vivo; details: anaesthetised male beagle dogs, dose inducing a 25% decrease in diastolic blood pressure
Experimental: The experiments were performed according to the method of Imagawa et al. (J. Pharmacol. Methods 22, 103-111 (1989)), with substantial modifications, as follows: adult male beagle dogs, weighing 8-10 kg, were anaesthetised with pentobarbital sodium (30 mg/kg i.v. and 2 mg/kg/h i.v.), intubated and spontaneously ventilated with room air. In order to monitor systemic blood pressure (BP), a polyethylene (PE) catheter was introduced into the aortic arch through the left femoral artery. A collateral of the left femoral vein was cannulated for infusion of anaesthetic, and the right femoral vein was cannulated for administration of compounds. For intraarterial (i.a.) injection of noradrenaline (NA), a PE catheter was introduced into the lower portion of the abdominal aorta via the right external iliac artery. Through such procedure, NA was selectively distributed to the lower urinary tract. A paramedian vertical suprapubic incision extending from the base of the pelvis to the mid-abdominal region was made and the bladder and the prostate were exposed. The bladder was manually emptied with a syringe. Prostatic urethral pressure was monitored with a Mikro-tip catheter (5F) introduced into the bladder via the external urethral meatus, and withdrawn until the pressure transducer was positioned in the prostatic region of the urethra. A ligature was secured between the neck of the bladder and urethra to isolate the response of the latter and to avoid any interaction with the bladder. Another ligature was put around the Mikro-tip catheter at the external meatus, to secure the catheter itself.
After a stabilising period following the surgical procedure (30 minutes), in which arterial and prostatic urethral pressures were continuously monitored as basal values, i.a. administration of NA was made at intervals of 20 minutes.
The doses of NA chosen were such to produce an increase of at least 100% in urethral pressure. The test compounds were administered i.v. in a cumulative manner with intervals of 15-20 minutes between administrations. […]

SMILES | DBP ED25 [1] | pKb [2] | UC ID50 NA [3] | ED50 [4] | Ratio (DBP/UC) [4] | DBP ED25 [5]
COc1ccccc1N1CCN(CCCNC(=O)c2cccc3c(=O)c(C)c(-c4ccccc4)oc23)CC1 [Compound A] | 243 µg/kg | 8.64 | 2.4 µg/kg | – | – | –
COc1ccc(Cl)cc1N1CCN(CCCNC(=O)c2csc3c(=O)cc(-c4ccccc4)oc23)CC1 [Example 1, N-{3-[4-(5-Chloro-2-methoxyphenyl)-1-piperazinyl]-propyl}-7-oxo-5-phenyl-7H-thieno[3,2-b]pyran-3-carboxamide] | – | – | – | 5.3 µg/kg | 52.8 | 280 µg/kg
COc1ccccc1N1CCN(CCCNC(=O)c2csc3c(=O)cc(-c4ccccc4)oc23)CC1 [Example 2, N-{3-[4-(2-Methoxyphenyl)-1-piperazinyl]-propyl}-7-oxo-5-phenyl-7H-thieno[3,2-b]pyran-3-carboxamide] | – | – | – | 1.8 µg/kg | 19.7 | 35.5 µg/kg
O=C(NCCCN1CCN(c2ccccc2OCC(F)(F)F)CC1)c1csc2c(=O)cc(-c3ccccc3)oc12 [Example 5, 7-Oxo-5-phenyl-N-{3-[4-[2-(2,2,2-trifluoroethoxy)-phenyl]-1-piperazinyl]-propyl}-7H-thieno[3,2-b]pyran-3-carboxamide] | – | – | – | 2.7 µg/kg | >370 | >1000 µg/kg
